Measurements taken from patent EP1285920A1, “C10 Ester sustituted taxanes as antitumor agents” (Florida State University Research Foundation, Inc., priority 2001, dated 2003).

Tests used:
[1] = tested on: MX-1 human breast carcinoma; assay type: in vivo
Protocol: (§1) Antitumor compounds were administered orally in a study to investigate whether such a formulation is efficacious against the MX-1 human breast carcinoma xenograft. Antitumor compound 0499 was formulated as Solution 1 in Example 6. Antitumor compound 0550 was formulated as Solution 2 in Example 6. Antitumor compound 0611 was formulated as Solution 3 in Example 6. Antitumor compound 0748 was formulated as Solution 4 in Example 6. Other antitumor compounds were formulated similarly. The compounds were prepared in a vehicle of 90% saline, 5% Cremophor, and 5% ethanol.
(§2) Female nu/nu mice (11-12 weeks of age; implanted subcutaneously with 1 mm^3 MX-1 human breast carcinoma fragments in the flank) were sorted into one control group (n=10) and four treatment (n=6) groups (group mean tumor size of 47-49 mg). The study was terminated on Day 63.

[2] = tested on: blood cell populations; assay: Effect of oral treatment on blood cell populations and body weight in the MX-1 study (Example 22); assay type: in vivo, nu/nu mice; details: mg/kg: 0499 80, 0550 73, 0611 113, 0748 200
Protocol: as §1, §2
In addition to survival and tumor regression responses, the effect of treatment on blood cell populations was assessed. The major effect of these antitumor compounds on blood cell populations was a marked reduction in the neutrophil cell number. As well, monocyte depletion correlated fairly well with neutrophil reduction for each antitumor compound. […] There was a correlation between antitumor activity and reduced neutrophil count. In general, toxicity (as determined by neutrophil depletion) and weight loss correlated with efficacy. […] Importantly, the toxicities observed with the very efficacious antitumor compounds were manageable and reversible; neutrophil count and body weight rebounded from their low points in just a few days. Table 20 summarizes the weight reduction, neutrophil and monocyte measurements on Day 4, with tumor weight reduction calculated at Day 18: Table 20

[3] = tested on: SKMES lung carcinoma; assay: In vivo evaluation of oral administration against SKMES human lung carcinoma xenograft (Example 21)
Protocol: Female Nu/Nu mice (6-8 weeks of age; implanted with 1 mm^3 SKMES lung carcinoma fragments in the flank) were sorted into treatment groups of six mice each. […] Treatments were administered as a single oral bolus on Day 1, and the study was terminated on Day 60.
(§3) A complete response is obtained if the tumor is not palpable at the end of the study.
The total response rate is defined as the percentage of evaluable animals (excluding deaths due to procedure or toxicity) in a group that experience complete or partial responses at the termination of the study.

[4] = tested on: HCT116 carcinoma; details: i.v. qd x 1 at MTD, Day 60
Method in brief: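 Mice bearing HCT116 tumours received a single i.v. maximum tolerated dose per compound, formulated in 5% ethanol, 5% Cremophor, 90% isotonic saline. Study ended on Day 60; complete response meant no palpable tumour at study end.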

[5] = tested on: NCI-H1299 (H1299) carcinoma; assay: In vivo evaluation against NCI-H1299 human lung carcinoma xenograft (i.v., Example 11)
Protocol: Antitumor compounds were formulated for an i.v. dosing regime prepared in the following vehicle: 10% ethanol, 10% Cremophor and 80% isotonic saline.
Vehicle control animals were dosed twice intravenously with half the total volume being given separated by one hour. The study was terminated on Day 60.
as §3
A tumor scoring system was designed to provide a more quantitative ranking of efficacy (therapeutic potential) among the antitumor agents evaluated against the different human solid tumor xenografts. Each mouse in a study was given a score of from 1 to 10 at the end of the study. The scores can be summarized as follows:
The individual score for each mouse was averaged into a mean score for each treatment group. […]
The treatment protocol for the H1299 test was identical to the SK-MES test protocol. […]

[6] = number of mice, single oral bolus Day 1, mg/kg: 0499 80, 0550 73, 0611 113, 0748 200, 6 mice/group, Day 63
[7] = Day 4, vs vehicle, single oral bolus
[8] = number of mice, single oral bolus Day 1, mg/kg: Taxol 40, 0687 228, 0503 73, 6 mice/group, Day 60

Question: How did the complete tumor regressions ([1]; MX-1, single oral bolus Day 1, six mice per group (0611: five evaluable), ended Day 63) turn out when CCC(=O)O[C@H]1C(=O)[C@@]2(C)[C@H]([C@H](OC(=O)c3ccccc3)[C@]3(O)C[C@H](OC(=O)[C@H](O)[C@H](C=C(C)C)NC(=O)OC(C)(C)C)C(C)=C1C3(C)C)[C@]1(OC(C)=O)CO[C@@H]1C[C@@H]2O [Compound 0499] was run?
Answer: two

Question: And the “Mean Day of Survival (n)” value ([1]; days until tumor reached 1.5 g, single oral bolus Day 1, mg/kg: 0499 80, 0550 73, 0611 113, 0748 200, 6 mice/group, terminated Day 63)?
Answer: 56.6 ± 2.1 (3)

Question: And the “Toxic Deaths” value ([1]; number of mice, single oral bolus Day 1, mg/kg: 0499 80, 0550 73, 0611 113, 0748 200, 6 mice/group)?
Answer: 0

Question: What about the “Complete Response” value [1, 6] of the same molecule?
Answer: 2

Question: What about the “Partial Response” value [1, 6] of the same molecule?
Answer: 0

Question: And the “Stable Disease” value [1, 6]?
Answer: 1

Question: And the “% Reduction (Weight)” value ([1]; po, 432 h)?
Answer: 100.0%

Question: And the “% Reduction (Monocytes)” value [2, 7]?
Answer: 24.0%

Question: What about the “% Reduction (Neutrophils)” value [2, 7] of the same molecule?
Answer: 91.6%

Question: What about the “Monocytes (K/µL)” value ([2]; Day 4, single oral bolus Day 1) of the same molecule?
Answer: 0.073 K/µL

Question: And the “Neutrophils (K/µL)” value ([2]; Day 4, single oral bolus Day 1)?
Answer: 0.077 K/µL

Question: What about the “Maximum Weight Loss (Day)” value ([2]; body weight, day of maximum in parentheses in the cell, single oral bolus Day 1) of the same molecule?
Answer: -11.4% (7)

Question: How did the complete responses ([3]; SKMES, 0503 73 mg/kg single oral bolus, six mice) turn out when CCC(=O)O[C@H]1C(=O)[C@@]2(C)[C@H]([C@H](OC(=O)c3ccccc3)[C@]3(O)C[C@H](OC(=O)[C@H](O)[C@@H](NC(=O)OC(C)(C)C)c4ccccn4)C(C)=C1C3(C)C)[C@]1(OC(C)=O)CO[C@@H]1C[C@@H]2O [Compound 0503] was run?
Answer: three

Question: And the “% Total Response” value ([3]; complete or partial responses among evaluable animals, single oral bolus Day 1, mg/kg: Taxol 40, 0687 228, 0503 73)?
Answer: 50.0%

Question: And the “MDS (n)” value ([3]; mean days of survival until neoplasm reached 2.0 g, single oral bolus Day 1, mg/kg: Taxol 40, 0687 228, 0503 73, 6 mice/group, terminated Day 60)?
Answer: 29.8 ± 3.6 (3) days

Question: What about the “Toxic Deaths” value ([3]; number of mice, single oral bolus Day 1, mg/kg: Taxol 40, 0687 228, 0503 73, 6 mice/group) of the same molecule?
Answer: 0

Question: What about the “Complete Response” value [3, 8] of the same molecule?
Answer: 3

Question: And the “Partial Response” value [3, 8]?
Answer: 0

Question: And the “Stable Disease” value [3, 8]?
Answer: 0

Question: What about the Survivors [3, 8] of the same molecule?
Answer: 3

Question: And the “Mean Score” value ([4]; 5 mice/group, doses as in E3)?
Answer: 9.2 ± 0.2

Question: And the “Stable Disease” value ([4]; number of 5 mice, tumor did not reach 2.0 g by end of study, doses as in E3)?
Answer: 0

Question: And the “Complete Response” value ([4]; number of 5 mice, tumor not palpable at end of study, doses as in E3)?
Answer: 1

Question: What about the “Partial Response” value ([4]; number of 5 mice, tumor smaller than on Day 1, doses as in E3) of the same molecule?
Answer: 4

Question: And the Survivors ([4]; number of 5 mice, doses as in E3)?
Answer: 5

Question: And the “Toxic Deaths” value ([4]; number of 5 mice, mg/kg: Taxol 36 (split doses), 0503 72.6, 0536 49, 0663 159, 0670 123, 0687 159, 0706 108, 0908 159, 0947 76.9, 0951 72.6, 0983 72.6, 0999 49, 1003 49, 1011 108)?
Answer: 0

Question: And the “Partial Response” value ([5]; i.v. split dose qd x 1)?
Answer: 0

Question: What about the “Stable Disease” value ([5]; i.v. split dose qd x 1) of the same molecule?
Answer: 3

Question: And the “antitumor activity” value ([5]; i.v. split dose qd x 1)?
Answer: significant efficacy

Question: And the Survivors ([5]; i.v. split dose qd x 1, six mice per group)?
Answer: 5

Question: And the “Mean Score” value ([5]; tumor score 1 to 10 per mouse, group mean)?
Answer: 5.5 ± 1.6
